Source: patent US20100062441A1, “C-MET MUTATIONS AND USES THEREOF” (priority 2007, published 2010)
“And” between values parts separate entries of the source, which are not always exact repeats. Equal entries are not always repeated.

What was measured:
[1] = tested on: R988C c-Met transgenic C. elegans
Protocol: (§1) To examine the effect of human c-met gene expression in C. elegans, both wild-type c-Met cDNA and mutant c-Met cDNA were individually micro-injected into young adult wild type N2 hermaphrodite gonads (gonad syncitium), at a concentration of 25 μg/ml. The constructs for the mutant c-Met cDNA were generated as described above. Control animals (N2) were injected with vector alone. Injected animals were individually cloned and their progeny were observed under dissecting microscope. Progenies were isolated and examined for visible morphological abnormalities such as defects in vulval formation, body morphology and locomotion. Individually cloned transgenic animals were further analyzed for fecundity and viability.
(§2) Animals in the progeny harboring a visible phenotype such as vulva defect, body morphology change, locomotion defect, and paralysis; and animals showing hyperactivity were isolated, individually cloned and examined with dissecting microscope. For detailed analysis of the phenotype, individual animals were mounted on an agar pad and observed under a Nikon Eclipse E600 fluorescence microscope equipped for Nomarski optics. Images were taken by a Hamamatsu Photonics CCD camera, and processed using the Metamorph digital imaging software (Siddiqui et al., Am J Physiol Lung Cell Mol Physiol 286, L1016-26 (2004)).
(§3) To determine whether a c-Met germline mutation alone is sufficient for lung cancer development or whether in order to develop lung cancer development a synergism of c-Met with smoking is necessary, the C. elegans transgenic animals described above were exposed to nicotine. Nicotine response experiments were performed in M9 buffer as previously described by Waggoner, et al. (Waggoner et al., J Neurosci 20, 8802-11 (2000)). Animals were cultured at 20° C. on nematode growth media (NGM) plates seeded with E. coli strain OP50. To examine the nicotine dose response, individual young adult hermaphrodites were placed in 6-well microtiter plate in M9 buffer at different concentrations of nicotine. Following one hour incubation with nicotine medium plates at 20° C., total numbers of eggs laid by each individual animal were counted.

[2] = tested on: T1010I c-Met transgenic C. elegans
Protocol: as §1, §2, §3

[3] = tested on: wild type human c-Met transgenic C. elegans; details: Wt c-Met
Protocol: as §1, §2, §3

C. elegans N2 wild type = tested on: C. elegans N2 wild type
Protocol: as §1, §2, §3

[4] = tested on: reactive oxygen species (ROS) in MU melanoma cells; assay: Reactive oxygen species measurement by DHE immunofluorescence; type: cell-based, human; details: HGF 40 ng/ml for 7.5 min; DHE
Protocol: 5×10^4 MU melanoma cells were plated in 35 mm petri dishes. After 24 hrs MU Melanoma cells were kept in serum free media containing 0.5% BSA with and without 5 μM SU11274 for 12 hrs. Cells were treated with 40 ng/ml HGF for 7.5 min, then treated with DHE 10 μM (molecular probes Inc, Eugene, Oreg.) for 30 min, after which they were visualized under a fluorescent Olympus microscope IX81, 20× objective, ND3 and Rhodamine filter sets. Fluorescence was then quantified using Image J and graphed.
The endogenous levels of reactive oxygen species (ROS) was also analyzed in MU melanoma cells with and without HGF treatment using DHE by fluorescence microscopy. DHE is a redox sensitive probe that has widely been used to detect intracellular superoxide anion. The relative levels of ROS were increased in response to HGF by 47%, and SU11274 decreased the ROS response to HGF to 3%.

NSCLC = details: in combination with chemotherapy; cited from earlier work
[5] = chronic exposure with nicotine (20 μm)
[6] = nicotine (20 μM) for 24 hours or more

## CN1CCCC1c1cccnc1 (stereo not shown) [nicotine]
[1]; [5]
  Body Shape Changes: 18% and 18 ± 0.13 %
  Growth Arrest: 22.9% and 22.9 ± 0.41 %
[1]; in the presence of nicotine
  viability: 30.54%
[1]; [6]
  vulval defects: 15%
[2]; [5]
  Body Shape Changes: 21% and 21 ± 0.14 %
  Growth Arrest: 29% and 29.0 ± 0.11 %
[2]; in the presence of nicotine
  viability: 4.58%
[2]; [6]
  vulval defects: 28%
[3]; [5]
  Body Shape Changes: 12% and 12 ± 0.22 %
  Growth Arrest: 9.72% and 9.72 ± 0.16 %
  Locomotion Defects: 11% and 11 ± 0.09 %
  Paralysis: 8% and 8 ± 0.08 %
[3]; in the presence of nicotine
  viability: 65.06%
[3]; [6]
  vulval defects: 6%
C. elegans N2 wild type; [5]
  Body Shape Changes: 3% and 3 ± 0.21 %
  Growth Arrest: 1.23% and 1.23 ± 0.19 %
  Locomotion Defects: 1% and 1 ± 0.18 %
  Paralysis: 2% and 2 ± 0.02 %
C. elegans N2 wild type; in the presence of nicotine
  viability: 91.94%
C. elegans N2 wild type; [6]
  vulval defects: 2%

## HGF: hepatocyte growth factor, the ligand for c-Met
[4]
  increase of relative levels of ROS: 47%

## bevacizumab: targeted therapy against VEGF
NSCLC
  enhancement of median overall survival: 2.3 months
